pIC50: −log10 of the molar value. Where two headings read alike, the source gives them in different places.
Columns and labels:
[1] = system: T1, 5-enolpyruvylshikimate-3-phosphate synthase (EPSPS), glyphosate-susceptible populations; test: EPSPS activity in leaf extract, inorganic phosphate release; assay type: biochemical, Echinochloa crus-galli; conditions: population E2 (susceptible); glyphosate 0-1000 μM; read-out: I50
T1 construct: native enzyme in leaf extract; hexaploid species, homoeologous EPSPS copies not distinguished

[2] = system: 5-enolpyruvylshikimate-3-phosphate synthase (EPSPS), glyphosate-resistant (R) and very resistant (VR) populations; conditions: read-out: I50, glyphosate 0-1000 μM, stated gain
Source text: EPSPS activity in leaf extract, inorganic phosphate release on 5-enolpyruvylshikimate-3-phosphate synthase (EPSPS), glyphosate-resistant (R) and very resistant (VR) populations

O=C(O)CNCP(=O)(O)O [glyphosate]
pIC50 [1]: 6.10 | pIC50 ([2]; population E7): 4.93 | pIC50 ([2]; population E9): 4.74 | pIC50 ([2]; population E10, possible EPSPS overexpression): 4.26 | pIC50 ([2]; population E12, possible EPSPS overexpression): 4.34

Reference: article PMC7928338, “Distribution of Glyphosate-Resistance in Echinochloa crus-galli Across Agriculture Areas in the Iberian Peninsula” (Frontiers in Plant Science, 2021)
